Patent US20260262643A1, “HERBICIDAL BENZOXAZINES” (FMC CORPORATION, priority 2022, published 2026)

Legend:
corn [1] = experiment: Test C postemergence; format: in vivo, Zea mays; conditions: 10 days, 0 to 100 scale (0 no effect, 100 complete control)
In short: (§1)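 Seeds in loam–sand blend received preemergence directed soil spray of test chemicals in non-phytotoxic solvent with surfactant; postemergence treatment was applied at one- to two-leaf stage (2–10 cm). After 10 days in greenhouse, injury rated visually versus untreated controls, 0 (no effect) to 100 (complete control).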

corn [2] = experiment: Test C preemergence; format: in vivo, Zea mays; conditions: preemergence, 0 to 100 scale (0 no effect, 100 complete control)
In short: as §1

kochia [3] = experiment: Test C postemergence; format: in vivo, Bassia scoparia; conditions: 10 days, 0 to 100 scale (0 no effect, 100 complete control)
In short: as §1

oat, wild [4] = experiment: Test C postemergence; format: in vivo, Avena fatua; conditions: 10 days, 0 to 100 scale (0 no effect, 100 complete control)
Text: (§2) Seeds of plant species selected from barnyardgrass (Echinochloa crusgalli), blackgrass (Alopecurus myosuroides), corn (Zea mays), foxtail, giant (giant foxtail, Setaria faberi), green foxtail (Setaria viridis), goosegrass (Eleusine indica), kochia (Bassia scoparia), oat, wild (wild oat, Avena fatua), pigweed, palmer (palmer amaranth, palmer pigweed, Amaranthus palmeri), Pigweed, Redroot (redroot pigweed, Amaranthus retroflexus), ragweed (common ragweed, Ambrosia artemisiifolia), ryegrass, Italian ([…] ryegrass, Lolium multiflorum), soybean (Glycine max), and wheat (Triticum aestivum) were planted into a blend of loam soil and sand and treated preemergence with a directed soil spray using test chemicals formulated in a non-phytotoxic solvent mixture which included a surfactant. At the same time, plants selected from these crops and weed species and also galium (catchweed bedstraw, Galium aparine) and horseweed (Erigeron canadensis) were planted in pots containing the same blend of loam soil and sand and treated with postemergence applications of test chemicals formulated in the same manner. Plants ranged in height from 2 to 10 cm and were in the one- to two-leaf stage for the postemergence treatment. Treated plants and untreated controls were maintained in a greenhouse for 10 days, after which time all treated plants were compared to untreated controls and visually evaluated for injury. Plant response ratings, summarized in Table C, are based on a 0 to 100 scale where 0 is no effect and 100 is complete control. A dash (-) response means no test result.

kochia [5] = experiment: Test C preemergence; format: in vivo, Bassia scoparia; conditions: preemergence, 0 to 100 scale (0 no effect, 100 complete control)
In short: as §1

wheat [6] = experiment: Test C postemergence; format: in vivo, Triticum aestivum; conditions: 10 days, 0 to 100 scale (0 no effect, 100 complete control)
Text: as §2

barnyardgrass [7] = experiment: Test C postemergence; format: in vivo, Echinochloa crusgalli; conditions: 10 days, 0 to 100 scale (0 no effect, 100 complete control)
In short: as §1

wheat [8] = experiment: Test C preemergence; format: in vivo, Triticum aestivum; conditions: preemergence, 0 to 100 scale (0 no effect, 100 complete control)
Text: as §2

blackgrass [9] = experiment: Test C postemergence; format: in vivo, Alopecurus myosuroides; conditions: 10 days, 0 to 100 scale (0 no effect, 100 complete control)
In short: as §1

green foxtail [10] = experiment: Test C preemergence; format: in vivo, Setaria viridis; conditions: preemergence, 0 to 100 scale (0 no effect, 100 complete control)
In short: as §1

ryegrass, Italian [11] = experiment: Test C preemergence; format: in vivo, Lolium multiflorum; conditions: preemergence, 0 to 100 scale (0 no effect, 100 complete control)
In short: as §1

ragweed [12] = experiment: Test C postemergence; format: in vivo, Ambrosia artemisiifolia; conditions: 10 days, 0 to 100 scale (0 no effect, 100 complete control)
In short: as §1

soybean [13] = experiment: Test C preemergence; format: in vivo, Glycine max; conditions: preemergence, 0 to 100 scale (0 no effect, 100 complete control)
Text: as §2

green foxtail [14] = experiment: Test C postemergence; format: in vivo, Setaria viridis; conditions: 10 days, 0 to 100 scale (0 no effect, 100 complete control)
In short: as §1

pigweed, palmer [15] = experiment: Test C postemergence; format: in vivo, Amaranthus palmeri; conditions: 10 days, 0 to 100 scale (0 no effect, 100 complete control)
In short: as §1

blackgrass [16] = experiment: Test C preemergence; format: in vivo, Alopecurus myosuroides; conditions: preemergence, 0 to 100 scale (0 no effect, 100 complete control)
In short: as §1

pigweed, palmer [17] = experiment: Test C preemergence; format: in vivo, Amaranthus palmeri; conditions: preemergence, 0 to 100 scale (0 no effect, 100 complete control)
In short: as §1

soybean [18] = experiment: Test C postemergence; format: in vivo, Glycine max; conditions: 10 days, 0 to 100 scale (0 no effect, 100 complete control)
Text: as §2

oat, wild [19] = experiment: Test C preemergence; format: in vivo, Avena fatua; conditions: preemergence, 0 to 100 scale (0 no effect, 100 complete control)
Text: as §2

galium = experiment: Test C postemergence; format: in vivo, Galium aparine; conditions: 10 days, 0 to 100 scale (0 no effect, 100 complete control)
In short: as §1

horseweed = experiment: Test C postemergence; format: in vivo, Erigeron canadensis; conditions: 10 days, 0 to 100 scale (0 no effect, 100 complete control)
In short: as §1

ragweed [20] = experiment: Test C preemergence; format: in vivo, Ambrosia artemisiifolia; conditions: preemergence, 0 to 100 scale (0 no effect, 100 complete control)
In short: as §1

barnyardgrass [21] = experiment: Test C preemergence; format: in vivo, Echinochloa crusgalli; conditions: preemergence, 0 to 100 scale (0 no effect, 100 complete control)
In short: as §1

ryegrass, Italian [22] = experiment: Test C postemergence; format: in vivo, Lolium multiflorum; conditions: 10 days, 0 to 100 scale (0 no effect, 100 complete control)
In short: as §1

CC(C)c1ncn(-c2cc(C(=O)N3C[C@H](C)Oc4c(Cl)cccc43)cnn2)n1 [Compound 305]
20: Oat, Wild plant response rating (oat, wild [19]; Test C, 125 g ai/ha)
90: Plant response rating, Corn (corn [1]; 500 g ai/ha, postemergence) | Plant response rating, Wheat (wheat [6]; 500 g ai/ha, postemergence) | Plant response rating, Barnyardgrass (barnyardgrass [7]; 500 g ai/ha, postemergence) | Plant response rating, Blackgrass (blackgrass [9]; 500 g ai/ha, postemergence) | Ryegrass, Italian plant response rating (ryegrass, Italian [11]; 500 g ai/ha) | Soybean plant response rating (soybean [13]; 500 g ai/ha) | Plant response rating, Foxtail, Green (green foxtail [14]; 500 g ai/ha, postemergence) | Blackgrass plant response rating (blackgrass [16]; 500 g ai/ha) | Ragweed plant response rating (ragweed [20]; 500 g ai/ha)
50: Plant response rating, Kochia (kochia [3]; Postemergence, 125 g ai/ha) | Plant response rating, Foxtail, Green (green foxtail [14]; Postemergence, 125 g ai/ha) | Blackgrass plant response rating (blackgrass [16]; Test C, 125 g ai/ha)
70: Wheat plant response rating (wheat [8]; 500 g ai/ha) | Plant response rating, Ragweed (ragweed [12]; Postemergence, 125 g ai/ha) | Ragweed plant response rating (ragweed [20]; Test C, 125 g ai/ha) | Barnyardgrass plant response rating (barnyardgrass [21]; Test C, 125 g ai/ha)
30: Corn plant response rating (corn [2]; 500 g ai/ha) | Plant response rating, Oat, Wild (oat, wild [4]; Postemergence, 125 g ai/ha) | Plant response rating, Barnyardgrass (barnyardgrass [7]; Postemergence, 125 g ai/ha) | Plant response rating, Pigweed, Palmer (pigweed, palmer [15]; Postemergence, 125 g ai/ha) | Plant response rating, Horseweed (horseweed; Postemergence, 125 g ai/ha) | Plant response rating, Ryegrass, Italian (ryegrass, Italian [22]; Postemergence, 125 g ai/ha)
80: Plant response rating, Kochia (kochia [3]; 500 g ai/ha, postemergence) | Kochia plant response rating (kochia [5]; Test C, 125 g ai/ha) | Plant response rating, Ragweed (ragweed [12]; 500 g ai/ha, postemergence) | Plant response rating, Pigweed, Palmer (pigweed, palmer [15]; 500 g ai/ha, postemergence) | Pigweed, Palmer plant response rating (pigweed, palmer [17]; Test C, 125 g ai/ha) | Oat, Wild plant response rating (oat, wild [19]; 500 g ai/ha)
60: Plant response rating, Oat, Wild (oat, wild [4]; 500 g ai/ha, postemergence) | Ryegrass, Italian plant response rating (ryegrass, Italian [11]; Test C, 125 g ai/ha) | Plant response rating, Ryegrass, Italian (ryegrass, Italian [22]; 500 g ai/ha, postemergence)
0: Corn plant response rating (corn [2]; Test C, 125 g ai/ha) | Wheat plant response rating (wheat [8]; Test C, 125 g ai/ha) | Soybean plant response rating (soybean [13]; Test C, 125 g ai/ha)
10: Plant response rating, Corn (corn [1]; Postemergence, 125 g ai/ha)
100: Kochia plant response rating (kochia [5]; 500 g ai/ha) | Foxtail, Green plant response rating (green foxtail [10]; 500 g ai/ha) | Foxtail, Green plant response rating (green foxtail [10]; Test C, 125 g ai/ha) | Pigweed, Palmer plant response rating (pigweed, palmer [17]; 500 g ai/ha) | Plant response rating, Soybean (soybean [18]; 500 g ai/ha, postemergence) | Plant response rating, Soybean (soybean [18]; Postemergence, 125 g ai/ha) | Plant response rating, Galium (galium; 500 g ai/ha, postemergence) | Plant response rating, Galium (galium; Postemergence, 125 g ai/ha) | Plant response rating, Horseweed (horseweed; 500 g ai/ha, postemergence) | Barnyardgrass plant response rating (barnyardgrass [21]; 500 g ai/ha)
40: Plant response rating, Wheat (wheat [6]; Postemergence, 125 g ai/ha) | Plant response rating, Blackgrass (blackgrass [9]; Postemergence, 125 g ai/ha)
